In patent US9873702B2, “Heterocyclic compounds as biogenic amine transport modulators” (Southern Research Institute, priority 2014, dated 2018):

Tests used:
[1] = target: dopamine transporter (DAT) (Rattus norvegicus, UniProt P23977); experiment: Dopamine reuptake ([^3H]dopamine uptake) inhibition in rat brain synaptosomes; conditions: for IC50: DA Uptake EC50 (nM ± SD), rat caudate synaptosomes, 5 nM [^3H]dopamine, 15 min, 25° C., three experiments pooled; for Emax: read-out: DA Uptake Emax (% I ± SD)
Sequence of dopamine transporter (DAT) (P23977 whole entry): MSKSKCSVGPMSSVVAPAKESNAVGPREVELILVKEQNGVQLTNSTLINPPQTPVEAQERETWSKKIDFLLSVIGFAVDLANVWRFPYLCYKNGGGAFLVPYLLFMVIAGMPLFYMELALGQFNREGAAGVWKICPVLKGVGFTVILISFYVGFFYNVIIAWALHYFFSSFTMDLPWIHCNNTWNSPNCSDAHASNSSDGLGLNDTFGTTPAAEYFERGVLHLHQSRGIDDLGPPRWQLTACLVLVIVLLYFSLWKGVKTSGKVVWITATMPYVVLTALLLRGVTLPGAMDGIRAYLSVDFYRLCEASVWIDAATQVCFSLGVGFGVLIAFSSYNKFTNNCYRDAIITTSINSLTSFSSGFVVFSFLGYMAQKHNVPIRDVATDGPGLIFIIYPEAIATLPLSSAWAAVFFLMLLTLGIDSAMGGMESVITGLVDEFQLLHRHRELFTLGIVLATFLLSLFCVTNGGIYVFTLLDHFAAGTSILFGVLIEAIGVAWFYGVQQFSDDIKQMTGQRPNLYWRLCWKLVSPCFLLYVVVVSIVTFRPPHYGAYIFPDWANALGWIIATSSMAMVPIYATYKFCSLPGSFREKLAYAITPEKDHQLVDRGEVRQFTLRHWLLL

melting point | IC50 [1] | Emax [1] | Structure (SMILES)
93 °C | 200 nM | < 100% | c1ccc(C(CNc2nc(-c3cc4ccccc4[nH]3)nc3ccccc23)c2ccccc2)cc1 [compound 42, N-(2,2-Diphenylethyl)-2-(1H-Indol-2-yl)Quinazolin-4-Amine]
195 to 196 °C | 24 ± 5 nM | 75 ± 2% | CC(C)C(CNc1nc(-c2ccc3nccn3c2)nc2ccccc12)c1ccccc1 (stereo not drawn) [compound 168, 2-(Imidazo[1,2-A]Pyridin-6-yl)-N-(3-Methyl-2-Phenylbutyl)Quinazolin-4-Amine]
258 to 260 °C | 16 ± 3 nM | 78 ± 2% | c1ccc(C(CNc2nc(N3CCc4[nH]c5ccccc5c4C3)nc3ccccc23)c2ccccc2)cc1 [compound 191, 2-(3,4-Dihydro-1H-Pyrido[4,3-B]Indol-2(5H)-yl)-N-(2,2-Diphenylethyl)Quinazolin-4-Amine]
117 °C | 46 nM | 100% | COc1cc2nc(-c3ccc4[nH]ccc4c3)nc(NCC(c3ccccc3)c3ccccc3)c2cc1OC [compound 24, N-(2,2-Diphenylethyl)-2-(1H-indol-5-yl)-6,7-Dimethoxyquinazolin-4-Amine]
247 to 249 °C | 41 ± 8 nM | 70 ± 2% | COc1ccc(C(CNc2nc(-c3ccc4nccn4c3)nc3ccccc23)C2(O)CCCCC2)cc1 (stereo not drawn) [compound 153, 1-(2-((2-(Imidazo[1,2-A]Pyridin-6-yl)Quinazolin-4-yl)Amino)-1-(4-Methoxyphenyl)ethyl)Cyclohexanol]
183 °C | 4210 nM | < 100% | CC(C)(C)OC(=O)n1cnc2cc(-c3nc(NCC(c4ccccc4)c4ccccc4)c4ccccc4n3)ccc21 [compound 62, Tert-Butyl 5-(4-((2,2-Diphenylethyl)Amino)Quinazolin-2-yl)-1H-Benzo [D]Imidazole-1-Carboxylate]
89 °C | 620 nM | < 100% | COc1cc2nc(-c3cccnc3)nc(NCC(c3ccccc3)c3ccccc3)c2cc1OC [compound 28, N-(2,2-Diphenylethyl)-6,7-Dimethoxy-2-(Pyridin-3-yl)Quinazolin-4-Amine]
99 to 101 °C | 3720 ± 608 nM | 80 ± 4% | CC(=O)N[C@H](CNc1nc(-c2ccc3nccn3c2)nc2ccccc12)c1ccccc1 [compound 149, (S)—N-(2-((2-(Imidazo[1,2-A]Pyridin-6-yl)Quinazolin-4-yl)Amino)-1-Phenylethyl)Acetamide]
242 °C | 47 ± 6 nM | 78 ± 2% | c1ccc(C(CNc2nc(-c3ccncc3)nc3ccccc23)c2ccccc2)cc1 [compound 39, N-(2,2-Diphenylethyl)-2-(Pyridin-4-yl)Quinazolin-4-Amine]
92 °C | 1420 nM | 100% | c1ccc(C(CNc2nc(-c3cnc(N4CCCCC4)nc3)nc3ccccc23)c2ccccc2)cc1 [compound 38, N-(2,2-Diphenylethyl)-2-(2-(Piperidin-1-yl)Pyrimidin-5-yl)Quinazolin-4-Amine]
192 to 196 °C | 66 ± 10 nM | 68 ± 2% | c1ccc2c(NCC(c3ccncc3)c3ccncc3)nc(-c3ccc4nccn4c3)nc2c1 [compound 158, N-(2,2-Di(Pyridin-4-yl)Ethyl)-2-(Imidazo[1,2-A]Pyridin-6-yl)Quinazolin-4-Amine]
221 to 224 °C | 14 ± 3 nM | 74 ± 2% | Cc1cc2nccn2cc1-c1nc(NCC(O)c2ccccc2)c2ccccc2n1 (stereo not drawn) [compound 186]
> 250 °C | 103 ± 26 nM | 55 ± 3% | c1ccc(C(CNc2nc(-c3ccc4ncnn4c3)nc3ccccc23)c2cccnc2)cc1 (stereo not drawn) [compound 132, 2-([1,2,4]Triazolo[1,5-a]pyridin-6-yl)-N-(2-phenyl-2-(pyridin-3-yl)ethyl)quinazolin-4-amine]
86 °C | 41 ± 13 nM | 86 ± 5% | Nc1ccc(-c2nc(NCC(c3ccccc3)c3ccccc3)c3ccccc3n2)cn1 [compound 88, 2-(6-Aminopyridin-3-yl)-N-(2,2-Diphenylethyl)Quinazolin-4-Amine]
148 to 152 °C | 575 ± 51 nM | 78 ± 1% | c1ccc(C(CNc2nc(-c3cccs3)nc3ccccc23)c2ccccc2)cc1 [compound 6, N-(2,2-Diphenylethyl)-2-(thiophen-2-yl)quinazolin-4-amine]
193 to 195 °C | 117 ± 35 nM | 83 ± 5% | c1ccc(C(CNc2nc(-c3ccc4nccn4c3)nc3ccccc23)N2CCCCC2)cc1 (stereo not drawn) [compound 119, 2-(Imidazo[1,2-A]Pyridin-6-yl)-N-(2-Phenyl-2-(Piperidin-1-yl)Ethyl)Quinazolin-4-Amine]
152 to 155 °C | 250 nM | < 100% | c1ccc(C(CNc2nc(-c3ccsc3)nc3ccccc23)c2ccccc2)cc1 [compound 10, N-(2,2-Diphenylethyl)-2-(thiophen-3-yl)quinazolin-4-amine]

melting point | IC50 [1] | Emax [1] | Structure (SMILES)
219 °C | 197 ± 40 nM | 81 ± 3% | Nc1ncc(-c2nc(NCC(c3ccccc3)c3ccncc3)c3ccccc3n2)cn1 (stereo not drawn) [compound 107, 2-(2-Aminopyrimidin-5-yl)-N-(2-Phenyl-2-(Pyridin-4-yl)Ethyl)Quinazolin-4-Amine]
223 °C | 123 ± 20 nM | 68 ± 2% | c1ccc(C(CNc2nc(-c3ccc4cn[nH]c4c3)nc3ccccc23)c2ccccc2)cc1 [compound 34, N-(2,2-Diphenylethyl)-2-(1H-Indazol-6-yl)Quinazolin-4-Amine]
195 °C | 29 ± 4 nM | 76 ± 2% | CN(C)c1ccc(-c2nc(NCCC(c3ccccc3)c3ccccc3)c3ccccc3n2)cn1 [compound 93, 2-(6-(Dimethylamino)Pyridin-3-yl)-N-(3,3-Diphenylpropyl)Quinazolin-4-Amine]
200 °C | 43 ± 9 nM | 66 ± 2% | Cn1ncc2cc(-c3nc(NCC(c4ccccc4)c4ccccc4)c4ccccc4n3)ccc21 [compound 67, N-(2,2-Diphenylethyl)-2-(1-Methyl-1H-Indazol-5-yl)Quinazolin-4-Amine]
67 °C | 36 ± 2 nM | 71 ± 1% | COc1ncc(-c2nc(NCC(c3ccccc3)c3ccccc3)c3ccccc3n2)cn1 [compound 29, N-(2,2-Diphenylethyl)-2-(2-Methoxypyrimidin-5-yl)Quinazolin-4-Amine]
192 to 196 °C | 11 ± 1 nM | 69 ± 1% | Cc1cc2nccn2cc1-c1nc(NCCc2ccccc2)c2ccccc2n1 [compound 160, 2-(7-Methylimidazo[1,2-A]Pyridin-6-yl)-N-Phenethylquinazolin-4-Amine]
201 to 202 °C | 140 ± 30 nM | 80 ± 3% | c1ccc2c(NCC(c3ccncc3)c3ccncc3)nc(-c3ccc4[nH]ccc4c3)nc2c1 [compound 173, N-(2,2-Di(pyridin-4-yl)Ethyl)-2-(1H-Indol-5-yl)Quinazolin-4-Amine]
258 °C | 55 ± 6 nM | 70 ± 1% | c1ccc(C(Nc2nc(-c3ccc4nccn4c3)nc3ccccc23)c2ccccc2)cc1 [compound 86, N-Benzhydryl-2-(Imidazo[1,2-A]Pyridin-6-yl)Quinazolin-4-Amine]
215 °C | 51 ± 14 nM | 94 ± 4% | Oc1nc2cc(-c3nc(NCC(c4ccccc4)c4ccccc4)c4ccccc4n3)ccc2[nH]1 [compound 79, 5-(4-((2,2-Diphenylethyl)Amino)Quinazolin-2-yl)-1H-Benzo[D]Imidazol-2-ol]
215 to 218 °C | 5.7 ± 1.6 nM | 74 ± 3% | COC(CNc1nc(-c2cn3ccnc3cc2C)nc2ccccc12)c1ccccc1 (stereo not drawn) [compound 187, N-(2-Methoxy-2-phenylethyl)-2-(7-methylimidazo[1,2-a]pyridin-6-yl)quinazolin-4-amine]
87 to 89 °C | 5 ± 1.1 nM | 76 ± 2% | Cc1cc2nccn2cc1-c1nc(NC(Cc2ccccc2)c2ccccc2)c2ccccc2n1 (stereo not drawn) [compound 172, N-(1,2-Diphenylethyl)-2-(7-Methylimidazo[1,2-A]Pyridin-6-yl)Quinazolin-4-Amine]
218 to 220 °C | 160 ± 28 nM | 61 ± 2% | O=C(Nc1nc(-c2ccc3nccn3c2)nc2ccccc12)C(c1ccccc1)c1ccccc1 [compound 144, N-(2-(Imidazo[1,2-A]Pyridin-6-yl)Quinazolin-4-yl)-2,2-Diphenylacetamide]
201 °C | 155 ± 92 nM | 50 ± 6% | Cn1ncc2c(-c3nc(NCC(c4ccccc4)c4ccccc4)c4ccccc4n3)cccc21 [compound 65, N-(2,2-Diphenylethyl)-2-(1-Methyl-1H-Indazol-4-yl)Quinazolin-4-Amine]
198 °C | 45 ± 15 nM | 67 ± 4% | c1ccc(C(CNc2nc(-c3ccc4ncsc4c3)nc3ccccc23)c2ccccc2)cc1 [compound 70, 2-(Benzo [D]Thiazol-6-yl)-N-(2,2-Diphenylethyl)Quinazolin-4-Amine]
148 °C | 79 ± 19 nM | 81 ± 3% | Nc1ncc(-c2nc(NCC(c3ccccc3)c3ccccc3)c3ccccc3n2)cn1 [compound 44, 2-(2-Aminopyrimidin-5-yl)-N-(2,2-Diphenylethyl)Quinazolin-4-Amine]
107 to 109 °C | 6.4 ± 1.6 nM | 76 ± 3% | CC(CNc1nc(-c2ccc3nccn3c2)nc2ccccc12)(c1ccccc1)c1ccccc1 [compound 164, N-(2,2-Diphenylpropyl)-2-(Imidazo[1,2-A]Pyridin-6-yl)Quinazolin-4-Amine]
210 °C | 234 ± 36 nM | 74 ± 2% | c1ccc(C(Nc2nc(-c3cncnc3)nc3ccccc23)c2ccccc2)cc1 [compound 14, N-Benzhydryl-2-(pyrimidin-5-yl)quinazolin-4-amine]
